Values quoted from earlier work in patent US20240109913A1, “NEW SPIRO[3H-INDOLE-3,2'-PYRROLIDIN]-2(1H)-ONE COMPOUNDS AND DERIVATIVES AS MDM2-P53 INHIBITORS” (Boehringer Ingelheim International GmbH, priority 2014, published 2024).

What was measured:
[1] = system: human acute myeloid leukemia (AML) and human prostate tumor xenograft models harboring p53 wild-type; conditions: p53 wild-type (Tovar et al. 2013)
[2] = system: p53 wild-type vs. p53 mutant cell lines; conditions: in vitro (Carol et al. 2013)
[3] = system: solid tumor xenograft models; conditions: solid tumor xenograft models (Carol et al. 2013)
[4] = system: acute lymphoblastic leukemia (ALL) xenograft models with mixed-lineage leukemia (MLL) rearrangement; conditions: ALL xenograft models with MLL rearrangement (Carol et al. 2013)

CCOc1cc(C(C)(C)C)ccc1C1=N[C@@](C)(c2ccc(Cl)cc2)[C@@](C)(c2ccc(Cl)cc2)N1C(=O)N1CCN(CCCS(C)(=O)=O)CC1 [RG7112]
antiproliferative and proapoptotic activity [1]: antiproliferative and proapoptotic activity of RG7112 has been observed

CCOc1cc(C(C)(C)C)ccc1C1=N[C@@](C)(c2ccc(Cl)cc2)[C@@](C)(c2ccc(Cl)cc2)N1C(=O)N1CCN(CCCS(C)(=O)=O)CC1 [RG-7112]
cytotoxic activity, median IC50 [2]: lower median IC50 values for p53 wild-type vs. p53 mutant cell lines
tumor growth inhibition [3]: induced tumor growth inhibition
efficacy in ALL xenograft models [4]: particularly efficacious
